Measurements from PMC3711460 (The Journal of neuroscience : the official journal of the …, 2013).

Columns and labels:
TAAR3 = molecular target: T1, TAAR3 (Mus musculus, UniProt Q5QD16); format: cell-based
T1 sequence (Q5QD16 1-343): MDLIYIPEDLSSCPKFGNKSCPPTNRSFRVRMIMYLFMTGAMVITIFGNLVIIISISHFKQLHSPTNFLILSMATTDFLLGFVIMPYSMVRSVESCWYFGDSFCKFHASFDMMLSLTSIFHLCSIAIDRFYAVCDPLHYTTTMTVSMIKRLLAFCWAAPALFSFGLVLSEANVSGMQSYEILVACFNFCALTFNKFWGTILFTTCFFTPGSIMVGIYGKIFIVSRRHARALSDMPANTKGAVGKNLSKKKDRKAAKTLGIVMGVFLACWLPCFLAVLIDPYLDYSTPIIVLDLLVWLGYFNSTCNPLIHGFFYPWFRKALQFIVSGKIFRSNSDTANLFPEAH

human TAAR5 = molecular target: T2, human TAAR5 (Homo sapiens, UniProt O14804); format: cell-based
T2 sequence (O14804 1-337): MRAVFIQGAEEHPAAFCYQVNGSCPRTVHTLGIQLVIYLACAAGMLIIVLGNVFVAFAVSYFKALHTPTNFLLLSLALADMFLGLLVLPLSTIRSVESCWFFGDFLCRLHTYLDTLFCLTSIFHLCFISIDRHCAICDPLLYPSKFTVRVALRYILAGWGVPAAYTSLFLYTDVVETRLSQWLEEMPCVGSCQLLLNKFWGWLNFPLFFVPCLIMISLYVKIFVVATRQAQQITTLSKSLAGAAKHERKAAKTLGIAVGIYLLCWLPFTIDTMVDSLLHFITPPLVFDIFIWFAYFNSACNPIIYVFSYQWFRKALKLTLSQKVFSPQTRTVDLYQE

EC50 (human TAAR5) | SMILES | EC50 (TAAR3)
 | NC1CCCCC1 [CHX, cyclohexylamine] | 270 nM
1200 ± 600 nM | CCN(C)C [DMEA, N,N-dimethylethylamine] | 
 | CC(C)CCN [IPA, isopentylamine] | 15 nM
